Experiments:
[1] = test system: LL-37 (cathelicidin-related antimicrobial peptide (CAMP)); assay: Expression of antimicrobial peptide LL-37 in human epidermal keratinocytes, real-time PCR; type: cell-based; conditions: NHEKs, 1% sample (in H2O), 24 hours, gene level, FIG. 1
Protocol: (§1) In order to confirm the effect of enhancing the skin immunity and defense of each of Examples and Comparative Example of the present invention, the activities of peptide LL-37 (cathelicidin-related antimicrobial peptide (CAMP)), human β-defensin-2 (hBD-2), and human β-defensin-3 (hBD-3) having antimicrobial efficacy were confirmed.
(§2) In order for the confirmation, human epidermal keratinocytes (NHEKs) were dispensed into a 96-well plate, and the cells were cultured under cell culture conditions for 24 hours. Thereafter, the cells were treated with a control, DMSO, and a 1% sample (in H2O) of each of Examples and Comparative Example, and the cells were additionally cultured for 24 hours. A real-time PCR method was performed to determine LL-37, BD-2, and BD-3 at a gene-level. The test procedure is as follows.
(§3) SuperPrep™ cell lysis and RT Kit for qPCR (TOYOBO, SCQ-101) were used for RNA isolation and cDNA synthesis. The cells from which the medium was removed were washed once with phosphate-buffered saline (PBS), 50 μl of a cell lysis mixture (including gDNA remover) was added and reacted for 5 minutes, and then, a stop solution was added. […] QuantiTect primer assays of Qiagen were used in the experiment as a primer, and the expression levels of LL-37, BD-2, and BD-3 in the samples were quantified as GADPH and compared with each other. […]

[2] = test system: human β-defensin-2 (hBD-2); assay: Expression of antimicrobial peptide BD-2 in human epidermal keratinocytes, real-time PCR; type: cell-based; conditions: NHEKs, 1% sample (in H2O), 24 hours, gene level, FIG. 2
Protocol: as §1, §2, §3

[3] = test system: human β-defensin-3 (hBD-3); assay: Expression of antimicrobial peptide BD-3 in human epidermal keratinocytes, real-time PCR; type: cell-based; conditions: NHEKs, 1% sample (in H2O), 24 hours, gene level, FIG. 3
Protocol: as §1, §2, §3

[4] = test system: filaggrin; assay: Expression level of filaggrin in keratinocytes, real-time PCR; type: cell-based; conditions: 24 hours, versus untreated control, FIG. 5
Protocol: In order to measure the effect of promoting the expression of moisturizing factors of each of Examples and Comparative Example of the present invention, the expression levels of filaggrin and loricrin were measured.
Specifically, keratinocytes purchased from Invitrogen Corporation were cultured in EpiLife (keratinocyte growth medium) containing a supplement (human keratinocyte growth supplement (HKGS)) for a predetermined time, and then, the cells were subcultured three times and then used. The keratinocytes which were subcultured three times were cultured to a confluence of 70 to 80% in a 6-well plate, each of the wells was separately treated with each of the samples, and then, the keratinocytes were cultured for a total of 24 hours. RNA of the keratinocytes was extracted from the cultured cells using easy BLUE, and then, cDNA synthesis was performed using SuperScript reverse transcriptase III kit. Real-time PCR for comparing the genes was performed using 2× TaqMan universal PCR mixture (10 μl), 20× TaqMan expression assay mix (1 μl), cDNA (50 ng), and a primer (Filaggrin: Hs00856927_g1*, Loricrin: Hs01894962_s1*) and a 7500 Fast Real-Time PCR system. In addition, a sample treated with 10 μM IGF-1 was used as a positive control group, and a control that was not treated with the sample was used as a comparison group.

[5] = test system: desmoglein1 (DSG1) gene; assay: Expression of desmoglein1 (DSG1) gene in UVB-irradiated NHEKs, Taqman real-time PCR; type: cell-based, human; conditions: UVB 25 mJ/cm^2, 10 nM sample, 4th day of culture, FIG. 6
Protocol: In order to confirm the effect of strengthening the skin barrier of each of Examples and Comparative Example of the present invention, an expression level of DSG1 gene as an intercellular binding factor was confirmed.
Specifically, normal human epidermal keratinocytes (NHEKs) were cultured in a 6-well plate incubator. After 24 hours, the keratinocyes were washed with phosphate-buffered saline (PBS), irradiation with UVB (25 mJ/cm^2) was performed, a 10 nM sample of each of Examples and Comparative Example was added to the NHEK culture medium, and then, culture was performed. The cells were harvested on the 4th day of culture, RNA was separated, cDNA was synthesized by a reverse transcriptional polymerase chain reaction (RT-PCR), Taqman real-time PCR was performed using the synthesized cDNA, and then, the expression level of the DSG1 gene as a keratinocyte differentiation marker was measured.

SMILES | expression level of antimicrobial peptide LL-37 relative to that in Example 2 [1] [%] | expression level of antimicrobial peptide BD-2 relative to that in Example 2 [2] [%] | expression level of antimicrobial peptide BD-3 relative to that in Example 2 [3] [%] | expression level of filaggrin, increase relative to the expression level in the control [4] [times] | expression level of desmoglein1, increase relative to the expression level in the UVB treatment group [5] [times]
CCCCCC(=O)N[C@@H](Cc1ccc(O)cc1)C(=O)OC [Comparative Example 1, Defensamide] | 40 | 33 | 40 |  | 
CCCCCCCCCC(=O)NC(CO)C(=O)OCC (stereo not shown) [Example 1, N-(1-oxodecyl)serine ethyl ester] |  |  |  | ≥ 4.3 | ≥ 4.1
CCCCCCCCCC(=O)NC(CO)C(=O)OC (stereo not shown) [Example 2, N-(1-oxodecyl)serine methyl ester] |  |  |  | ≥ 3.8 | ≥ 4.5

Reference: patent US20220142888A1, “COMPOSITION FOR IMPROVING SKIN CONDITIONS” (NEOPHARM CO., LTD., priority 2020, published 2022)
